Measurements published in patent US10294202B2, “Pyrrolidinones as herbicides” (FMC Corporation, priority 2013, dated 2019).

Key:
[1] = test system: morningglory; test: Test A pre-/postemergence herbicide test; format: in vivo, Ipomoea spp.; conditions: for Morningglory plant response rating: Preemergence, visual rating on 0 to 100 scale (0 no effect, 100 complete control)
How it was run: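 Seeds sown in loam soil/sand blend received a preemergence directed soil spray of test chemical in non-phytotoxic solvent with surfactant; postemergence plants (2–10 cm, one- to two-leaf stage) were sprayed with the same formulation. After about 10 days in greenhouse, injury was rated visually versus untreated controls, 0 (no effect) to 100 (complete control).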

[2] = test system: rice; test: Test C flooded paddy test; format: in vivo, Oryza sativa; conditions: Flood
How it was run: (§1)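 Visual injury scored against controls after 13 to 15 days in the greenhouse, using 0 (no effect) to 100 (complete control). Test compounds went straight into paddy water held 3 cm above the soil surface on 2-leaf-stage plants, with that flood depth maintained for the whole test.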

[3] = test system: sedge, umbrella; test: Test C flooded paddy test; format: in vivo, Cyperus difformis; conditions: Flood
How it was run: as §1

[4] = test system: barnyardgrass; test: Test C flooded paddy test; format: in vivo, Echinochloa crus-galli; conditions: Flood
How it was run: as §1

[5] = test system: lambsquarters; test: Test C pre-/postemergence herbicide test; format: in vivo, Chenopodium album
How it was run: (§2)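 Visual rating, 0 (no effect) to 100 (complete control), versus untreated controls after 13 to 15 days in the greenhouse. Pre: seeds in loam/sand, sprayed at planting. Post: 1- to 4-leaf plants (2 to 18 cm) in peat-based mix. Compounds in non-phytotoxic solvent plus surfactant.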

[6] = test system: barnyardgrass; test: Test C pre-/postemergence herbicide test; format: in vivo, Echinochloa crus-galli; conditions: for Barnyardgrass plant response rating: scale 0 to 100, 0 is no effect and 100 is complete control
How it was run: as §2

[7] = Postemergence, 500 g ai/ha, 0 to 100 scale (0 no effect, 100 complete control)
[8] = preemergence, 500 g ai/ha, 0 to 100 scale
[9] = 31 g ai/ha, scale of 0 to 100 where 0 is no effect and 100 is complete control, 13 to 15 days
[10] = 62 g ai/ha, scale of 0 to 100 where 0 is no effect and 100 is complete control, 13 to 15 days
[11] = 125 g ai/ha, scale of 0 to 100 where 0 is no effect and 100 is complete control, 13 to 15 days
[12] = Postemergence, 125 g ai/ha, 0 to 100 scale, 0 no effect, 100 complete control
[13] = Postemergence, 31 g ai/ha, scale 0 (no effect) to 100 (complete control)
[14] = Postemergence, 62 g ai/ha, scale 0 to 100 (0 no effect, 100 complete control)
[15] = Postemergence, 125 g ai/ha, scale 0 to 100 (0 no effect, 100 complete control)
[16] = Postemergence, 250 g ai/ha, scale 0 to 100 (0 no effect, 100 complete control)
[17] = Preemergence, 62 g ai/ha, scale 0 to 100
[18] = Preemergence, 125 g ai/ha, scale 0 to 100 (0 no effect, 100 complete control)

| Compound | Plant response rating, Morningglory [1, 7] | Morningglory plant response rating ([1]; 125 g ai/ha) | Plant response rating, Morningglory [1, 8] | Plant response rating, Rice [2, 9] | Plant response rating, Rice [2, 10] | Plant response rating, Rice [2, 11] | Plant response rating, Rice ([2]; 250 g ai/ha, scale 0 to 100) | Plant response rating, Sedge, Umbrella [3, 9] | Plant response rating, Sedge, Umbrella [3, 10] | Plant response rating, Sedge, Umbrella [3, 11] | Plant response rating, Sedge, Umbrella ([3]; 250 g ai/ha, scale 0 to 100) | Plant response rating, Barnyardgrass [4, 9] | Plant response rating, Barnyardgrass [4, 10] | Plant response rating, Barnyardgrass [4, 11] | Plant response rating, Barnyardgrass ([4]; 250 g ai/ha, scale 0 to 100) | Plant response rating, Morningglory [1, 12] | Plant response rating, Lambsquarters [5, 17] | Plant response rating, Lambsquarters [5, 18] | Plant response rating (scale of 0 to 100), Lambsquarters ([5]; Preemergence, 250 g ai/ha) | Barnyardgrass plant response rating ([6]; Preemergence, 31 g ai/ha) | further results |
| --- | --- | --- | --- | --- | --- | --- | --- | --- | --- | --- | --- | --- | --- | --- | --- | --- | --- | --- | --- | --- | --- |
| O=C1NCC(c2cccc(C(F)(F)F)c2)C1C(=O)Nc1ccccc1F (racemic) [Compound 3] | 30 | 0 | 0 | 0 | 0 | 0 | 0 | 0 | 0 | 0 | 50 | 0 | 20 | 40 | 55 |  |  |  |  |  |  |
| O=C1NCC(c2ccc(F)c(F)c2)C1C(=O)Nc1cccc(F)c1 (racemic) [Compound 12] | 0 | 0 | 0 | 0 | 0 | 0 | 0 | 0 | 0 | 0 | 0 | 0 | 0 | 0 | 65 | 0 |  |  |  |  |  |
| O=C1NCC(c2ccc(F)c(C(F)(F)F)c2)C1C(=O)Nc1ccccc1F (racemic) [Compound 76] | 40 | 0 | 50 |  |  |  |  |  |  |  |  |  |  |  |  | 20 | 0 | 0 | 35 | 80 | Plant response rating, Lambsquarters [5, 13]: 40; Plant response rating, Lambsquarters [5, 14]: 40; Plant response rating, Lambsquarters [5, 15]: 40; Plant response rating, Lambsquarters [5, 16]: 50; Plant response rating, Barnyardgrass [6, 13]: 0; Plant response rating, Barnyardgrass [6, 14]: 35; Plant response rating, Barnyardgrass [6, 15]: 85; Plant response rating, Barnyardgrass [6, 16]: 90; Plant response rating, Barnyardgrass [6, 17]: 85; Plant response rating, Barnyardgrass [6, 18]: 95; Plant response rating (scale of 0 to 100; 0 is no effect, 100 is complete control), Barnyardgrass ([6]; Preemergence, 250 g ai/ha): 98 |
| O=C1NCC(c2ccc(F)c(C(F)(F)F)c2)C1C(=O)Nc1ccccc1C(F)(F)F (racemic) [Compound 78] | 0 | 0 | 0 |  |  |  |  |  |  |  |  |  |  |  |  | 0 | 40 | 85 | 85 | 60 | Plant response rating, Barnyardgrass [6, 17]: 75; Plant response rating, Barnyardgrass [6, 18]: 85; Plant response rating (scale of 0 to 100; 0 is no effect, 100 is complete control), Barnyardgrass ([6]; Preemergence, 250 g ai/ha): 95 |
